Assay results as given in patent US12595269B2, “Morpholine-like monoamine releasers” (Solvonis Therapeutics Ireland Holdings Limited, priority 2022, dated 2026).
pEC50, pIC50: −log10 of the molar value. Like-named read-outs stand apart in the source and are kept apart here.

Experiments:
[1] = target: T1, CYP2B6 (Homo sapiens, UniProt P20813); assay: CYP450 inhibition, Vivid CYP2B6 Baculosomes, BOMCC substrate; assay type: in vitro ADME
T1 construct: purchased Life Technologies P3028; host or cells: Baculosomes
T1 sequence (P20813 1-491): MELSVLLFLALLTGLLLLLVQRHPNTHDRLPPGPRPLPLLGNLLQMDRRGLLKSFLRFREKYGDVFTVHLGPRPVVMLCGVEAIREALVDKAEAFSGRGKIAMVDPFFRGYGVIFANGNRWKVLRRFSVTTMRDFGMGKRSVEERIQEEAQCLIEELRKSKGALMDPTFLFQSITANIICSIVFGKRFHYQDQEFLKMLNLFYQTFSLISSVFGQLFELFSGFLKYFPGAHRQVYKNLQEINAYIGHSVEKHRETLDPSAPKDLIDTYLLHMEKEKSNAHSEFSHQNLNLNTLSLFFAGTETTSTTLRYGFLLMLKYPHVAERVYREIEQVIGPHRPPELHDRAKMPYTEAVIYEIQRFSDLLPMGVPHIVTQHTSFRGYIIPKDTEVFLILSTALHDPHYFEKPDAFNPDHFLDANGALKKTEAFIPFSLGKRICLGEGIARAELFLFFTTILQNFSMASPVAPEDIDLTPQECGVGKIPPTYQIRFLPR
Method: (§1) Methods and Procedure: The study was performed in agreement with previously described procedures to assure data integrity and adherence to GLP standards. Briefly, recombinant human CYP450 isoenzymes were used to metabolize pro-fluorescent probe substrates to fluorescent products. IC50 values determined from the effect of test compounds on the metabolism of these probe substrates were then used to determine inhibitory potency against CYP450 isoforms.
The test system was based on a three-step procedure with a “mix and read” format, where PGP-432,TI reaction and reading were performed at 37° C. […] Fluorescence was measured in kinetic mode (1 read/minutes for 10 minutes), and the fluorescence rate was calculated. […]
Next, 10 μL/well from the compound plate was added and incubated for 10 minutes at 37° C. on a plate shaker, while a mixture of Vivid Substrate and Vivid NADP+ in Vivid CYP450 Reaction Buffer was prepared. The reaction was initiated by adding 10 μL/well of the Vivid Substrate and NADP+ mixture, before transferring the plate into the fluorescent plate reader (immediately, within 2 minutes), and fluorescence was monitored every minute for 10 minutes according to the specific protocol. Regarding data analysis, the inhibition effect is expressed as a percentage. […]

[2] = target: T2, human 5-HT2A receptor (Homo sapiens, UniProt P28223); assay: Intracellular calcium response (FLIPR) in CHO cells expressing human 5-HT2A receptor, agonist and antagonist modes; assay type: cell-based
T2 construct: expressed in transfected cells; host or cells: CHO
Method: Methods and Procedure: Selectivity for the 5-HT2A receptor was assessed by measuring [Ca^2+]; in a CHO recombinant cell line stably expressing the human 5-HT2A receptor, using Fluorometric Imaging Plate Reader (FLIPR TETRA, Molecular Devices).
The day before the experiment, CHO cells were seeded into clear-bottom 384-well plates at a density of 10,000 cells per well, in F-12K Medium (ThermoFisher #21127) supplemented with 10% dialyzed fetal bovine serum, and grown overnight at 37° C., 5% CO2.
On the day of the experiment, the medium was replaced with assay buffer (20 mM HEPES, 145 mM NaCl, 5 mM KCl, 5.5 mM glucose, 1 mM MgCl2, 2 mM CaCl2 and 2.5 mM probenecid, pH 7.4) containing the cytoplasmic Ca^2+ indicator Fluo-4 AM at 2 μM and 0.02% Pluronic F-127. After an incubation of 45-60 minutes at 37° C., 0% CO2, cells were washed by Microplate Washer (BIOTEK) 384 with assay buffer, and the plate was transferred in the FLIPR TETRA. Then, intracellular fluorescence was measured in real time by FLIPR TETRA (excitation wavelength at 470-495 nm, emission wavelength at 515-575 nm), using a dual addition protocol.
In the first addition, test compounds (11 points of 1:4 serial dilution, 0.5% DMSO final) were added to the cell plate to evaluate their effect on intracellular calcium levels. In the event of a response, the signal was elaborated for the determination of pEC50/EC50 values. […] Inhibition of 5-HT response vs. vehicle effect (0.5% DMSO) was elaborated for the determination of pIC50/IC50 values. […] A CRC of ketanserin was used as the internal antagonist control.

[3] = target: T3, CYP3A4 (Homo sapiens, UniProt P08684); assay: CYP450 inhibition, fluorescent probes 7BQ and DBOMF: CYP3A4; assay type: in vitro ADME; conditions: for IC50 at 10 min: human
T3 construct: purchased Life Technologies P2377; host or cells: Baculosomes
Method: as §1
The test system was based on a three-step procedure with a “mix and read” format, where PGP-432,TI reaction and reading were performed at 37° C. The assays described herein measure in vitro inhibitory effects (pIC50) of compounds on the human P450 isoforms (1A2, 2B6, 2C8, 2C9, 2C19, 2D6, 3A4) expressed in recombinant microsomes. Pro-fluorescent probe substrates were metabolized to fluorescent products by the enzymes. Fluorescence was measured in kinetic mode (1 read/minutes for 10 minutes), and the fluorescence rate was calculated.
Inhibition of the fluorescent signal resulting from P450 activation indicated inhibitory activity and facilitated calculation of the compound pIC50. […] Concentration response curves (CRCs) of compounds were run on two different test occasions (n=2) by preparing serial dilutions from the dame compound stock solution.
To prepare the compound plate, test compounds serial dilutions 1 to 3 were performed from a 10 mM stock solution in DMSO by Biomek FX to generate 10 point CRC with the highest concentrations in columns 3 and 13.
100% DMSO was placed in columns 1 and 2 and used for assay low controls. CYP inhibitor (10 mM miconazole solution in DMSO) was placed in columns 23 and 24 and served as an assay high controls. 1 μL copy plates were then stamped into V-bottom drug plates at a concentration that is 200 fold the final assay concentration. The copy plates were diluted prior to the experiment with assay buffer to reach 4 times the final assay concentration (2% w/v DMSO).
A reference compound (e.g., miconazole) was included in each compound plate in row A, column 3 and 13. The reference compound was diluted and stamped together with test compounds. The final concentrations of the 10 point CRCs of test compounds in the assay plate were 5.00E-05; 1.67E-05; 5.56E-06; 1.85E-06; 6.17E-07; 2.06E-07; 6.86E-08; 2.29E-08; 7.62E-09 and 2.54E-09, respectively. […]
Microsomes were added to the buffer prior to the substrate addition. […] For fluorescence measurement, 10 μL/well of the test compounds were transferred from the compound plate to the assay plate using Biomek FX and the appropriate protocol. […]
10 μL/well of the cofactor was then added to the assay plate using the Multidrop before placing the assay plate in the plate reader EnVision to measure fluorescence. […]

T2 sequence (P28223 whole entry): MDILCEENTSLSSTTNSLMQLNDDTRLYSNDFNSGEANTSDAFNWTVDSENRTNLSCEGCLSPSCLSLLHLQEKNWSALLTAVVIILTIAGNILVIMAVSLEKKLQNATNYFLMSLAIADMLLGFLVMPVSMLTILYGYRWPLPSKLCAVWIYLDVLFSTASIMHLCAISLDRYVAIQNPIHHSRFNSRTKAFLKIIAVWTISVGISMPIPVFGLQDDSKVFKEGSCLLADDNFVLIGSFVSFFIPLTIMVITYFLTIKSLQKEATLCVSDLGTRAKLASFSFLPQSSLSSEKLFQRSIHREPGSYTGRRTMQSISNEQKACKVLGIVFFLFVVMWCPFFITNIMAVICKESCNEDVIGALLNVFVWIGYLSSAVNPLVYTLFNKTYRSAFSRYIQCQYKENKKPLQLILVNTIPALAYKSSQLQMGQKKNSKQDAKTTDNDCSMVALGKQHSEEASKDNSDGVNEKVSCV
T3 sequence (P08684 whole entry): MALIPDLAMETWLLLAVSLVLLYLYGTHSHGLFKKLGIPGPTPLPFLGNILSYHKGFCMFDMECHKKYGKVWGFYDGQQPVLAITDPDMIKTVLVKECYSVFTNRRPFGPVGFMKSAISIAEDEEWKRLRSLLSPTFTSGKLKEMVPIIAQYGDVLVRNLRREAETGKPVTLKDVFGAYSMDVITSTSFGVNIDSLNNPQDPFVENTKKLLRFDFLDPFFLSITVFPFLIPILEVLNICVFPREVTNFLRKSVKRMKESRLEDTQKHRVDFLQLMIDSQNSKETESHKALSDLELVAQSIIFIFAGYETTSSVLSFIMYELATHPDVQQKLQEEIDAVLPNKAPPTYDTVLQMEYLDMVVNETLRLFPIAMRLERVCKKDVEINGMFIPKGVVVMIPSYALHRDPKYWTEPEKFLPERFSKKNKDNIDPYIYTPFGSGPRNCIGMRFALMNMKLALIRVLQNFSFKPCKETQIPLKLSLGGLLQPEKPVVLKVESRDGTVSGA

Row | Structure (SMILES) | pIC50 ([1]; recombinant human CYP2B6) | EC50 ([2]; agonist mode, CHO cells, calcium response, read-out: 5-HT2A agonist selectivity (pEC50) (converted)) | EC50 ([2]; antagonist mode, versus serotonin EC80, read-out: 5-HT2A antagonist selectivity (represented as pEC50) (converted)) | pIC50 ([3]; recombinant human CYP3A4, substrate 7BQ, read-out: CYP450 Inhibition (IC50), CYP3A4 (7BQ)) | pIC50 ([3]; recombinant human CYP3A4, substrate DBOMF, read-out: CYP450 Inhibition (IC50), CYP3A4 (DBOMF)) | IC50 at 10 min ([1]; human, recombinant CYP2B6 Baculosomes, pH 8, probe Vivid BOMCC) | pEC50 ([2]; 5-HT2A agonist selectivity (pEC50), agonist mode, CHO cells, calcium response) | pEC50 ([2]; 5-HT2A antagonist selectivity (represented as pEC50), antagonist mode, versus serotonin EC80) | IC50 at 10 min ([3]; recombinant CYP3A4 Baculosomes, pH 8, probe Vivid DBOMF) | IC50 at 10 min ([3]; recombinant microsomes expressing CYP3A4, probe 7BQ)
1 | Clc1ccc(C23CNC(CO2)C3)cc1Cl (stereo not shown) [522A, 1-(3,4-dichlorophenyl)-2-oxa-5-azabicyclo[2.2.1]heptane] | 4.39 | 50.1 µM | 3.98 µM | < 4.30 | < 4.30 | – | – | – | – | –
2 | CNC(C)Cc1ccc2c(c1)OCO2 (stereo not shown) [MDMA, reference compound] | – | – | – | – | – | 50 µM | < 4.30 | < 4.30 | 50 µM | 50 µM
